The test system of one assay is mice. In words: Tail flick test (analgesic activity, 49° C. water bath). In kind it is in vivo. On the procedure: Tail flick test is a test of the pain response in animals. Tail flick test is used in basic pain research and to measure the effectiveness of analgesics, by observing the tail flick reaction to heat in an animal. This test assesses the nociceptive response to a local pain stimulus, and the ability of a drug to inhibit this response.
Vehicle control (dimethyl sulfoxide, DMSO) and test compound 4-benzylsulfonyl-2-butenenitrile in DMSO were administered intraperitoneally to mice with a volume of 5 mL/kg, twice, at 30 minutes before the first tail flick measurement. The test compound was administered at a dosage of 50 mg/kg. The positive control compound morphine was administered by subcutaneous injection at 8 mg/kg with a volume of 8 mL/kg, at 30 minutes before the first tail flick measurement. Each group had 10 mice.
The response of mice to heat stimulus was evaluated by measuring the time of tail-flick or tail-flick latency from 49° C. water bath. Briefly, the animal was placed in a restrainer with its tail hanging down. Approximately 2 inches of the tail was immersed in a beaker of water at 38±1° C. for about 30 seconds, and this was done twice to acclimate the animal to the procedure.
Subsequently, approximately 2 inches of the tail was immersed in a beaker of water at 49±1° C., at which point a timer was started.
Tail flick measurements were made 30, 60 and 120 minutes post administration of the dosage of test compound. An ANOVA was done, and if p<0.05, a Dunnett's t test was employed to calculate significant difference between vehicle control and test compound treated groups. A pairwise Student's t test was used to calculate differences between the morphine group and the control group.

The subject of assay [1] is human peripheral blood mononuclear cells. In words: Pro-inflammatory cytokine release from human peripheral blood mononuclear cells in vitro. The settings on record: statement only, no data or method given. In kind it is cell-based.

Regarding `CN1CC[C@]23c4c5ccc(O)c4O[C@H]2[C@@H](O)C=C[C@H]3[C@H]1C5` [Morphine, morphine], the “tail flick latency compared with vehicle-treated mice” value is reported as “statistically significant tail flick latency” in the assay with mice (morphine 8 mg/kg subcutaneous injection, 30 minutes); “statistically significant tail flick latency” in the assay on mice (morphine 8 mg/kg subcutaneous injection, 60 minutes); “not at 120 minutes” in the assay with mice (morphine 8 mg/kg subcutaneous injection, 120 minutes).

For `N#CC=CCS(=O)(=O)Cc1ccccc1` (racemic) [4-benzylsulfonyl-2-butenenitrile], the “inhibition of pro-inflammatory cytokine release (e.g., IL-1β, IL-6, TNFα, IL-4 and IFNγ)” value in assay [1] is reported as “effective in inhibiting pro-inflammatory cytokine release”. In addition, the “tail flick latency compared with vehicle-treated mice” value was “statistically significant tail flick latency” with mice (50 mg/kg intraperitoneal in DMSO, 30 minutes, p value=0.046) and “statistically significant tail flick latency” in the assay on mice (50 mg/kg intraperitoneal in DMSO, 120 minutes, p value=0.020).

(Values after patent US9987246B2, “4-benzylsulfonyl-2-butenenitrile” (Olatec Therapeutics LLC, priority 2014, dated 2018).)
